pKd: −log10 of the molar value. Entries after “also recorded” stand apart in the source; their conditions may differ. Where no end group is shown, it is not given here. The star is where a group is joined. Acm = CC(=O)NC*
Columns and labels:
[1] = Acute oral toxicity testing (LD50); conditions: C57BI/6, mouse, in vivo
Procedure: Acute oral toxicity testing of intact nanospheres and individual components was carried out to determine the LD50 (median lethal dose) with C57BI/6 (Table 2).

INS-1 cells = assay: Cellular cytotoxicity by MTS after exposure to polymers and reagents; format: cell-based; conditions: 1 mg/mL polymer or 0.05 mg/mL dye, 37° C., up to 48 hours post-exposure
Procedure: Cellular cytotoxicity following exposure to the polymers and reagents: INS-1 cells were incubated with the polymers and/or reagents (1 mg/mL polymer or 0.05 mg/mL dye) at 37° C., and cellular viability was determined by MTS (FIG. 5).

Cells = conditions: 0.2 mg/mL, 5 hr, 37° C.
INS cells = conditions: 0.2 mg/mL, 37° C.
[2] = test system: control uMUC-1-negative cell line U87; assay: In vitro specificity of CLIO-EPPT (flow cytometry, fluorescence microscopy); format: cell-based, human
Description: (§1) FIG. 7 depicts a crosslinked iron oxide (CLIO)-EPPT multi-modal imaging probe. (A) The core protein of the MUC-1 tumor antigen. The immunodominant region of the tandem repeat is recognized by the EPPT1 peptide derived from an ASM2 monoclonal antibody (45). (B) Synthesis (left) and scheme of the probe (right). […] Left, overlay of the bright field and FITC channel; middle, overlay of the bright field and Cy5.5 channel; right, overlay of the FITC and Cy5.5 channels. […] Magnification bars=10 μm.
(§2) In vitro specificity of CLIO-EPPT for adenocarcinomas was further characterized by flow cytometric analysis of probe binding to selected adenocarcinoma and control cell lines (FIG. 7E). […] Fluorescence microscopy experiments, in which adenocarcinoma and control cells were incubated with the probe, confirmed the fluorescence-activated cell sorting data.

[3] = test system: adenocarcinoma cell lines (BT-20, CAPAN-2, ChaGo-K-1, HT-29, LS174T); assay: as above; format: cell-based, human
Description: as §1, §2

[4] = test system: uMUC-1-negative (U87) tumors; assay: In vivo MR and NIRF imaging of tumor-bearing animals; set-up: species or system mice; conditions: control tumors
Procedure: (§3) (B) White light (left), near-infrared fluorescent (NIRF) (middle) images, and a color-coded map (right) of mice bearing bilateral underglycosylated mucin-1 antigen uMUC-1-negative (U87) and uMUC-1-positive (LS174T) tumors. NIRF imaging was performed immediately after the MRI session. […] (D) Dual channel fluorescence microscopy of the frozen LS 174T tumor section. Green channel fluorescence from the FITC-labeled EPPT peptide (left) colocalized with Cy5.5 fluorescence derived from Cy5.5-labeled cross-linked iron oxides (middle). […] Magnification bar=10 μm.
(§4) In vivo ^1H-MR imaging was performed on animals bearing bilateral uMUC-1-positive and uMUC-1-negative tumors before and 24 hours after probe injection. […] The same animals were subjected to optical imaging immediately after the MR-imaging session. […] Fluorescence microscopy of excised tumors and muscle tissue gave results consistent with NIRF images. From biodistribution studies with ^125I-CLIO-EPPT, on average uMUC-1-positive tumors accumulated 3.4 times more of the probe than uMUC-1-negative tumors.

[5] = test system: uMUC-1-positive (LS174T) tumors; assay: as above; set-up: species or system mice
Procedure: as §3, §4

[6] = test system: human uMUC-1-positive tumor cell lines; assay: Cell binding assay with 125I-labeled CLIO-EPPT; format: cell-based
Description: as §1
(§5) Cell binding assays (FIG. 7D) were carried out with a variety of human uMUC-1-positive tumor cell lines: ZR-75-1 (breast), BT-20 (breast), HT29 (colon), CAPAN-2 (pancreas), LS174T (colon), and ChaGo-K-1 (lung) as well as human control uMUC-1-negative tumor and normal cell lines.

[7] = test system: human control uMUC-1-negative tumor and normal cell lines; assay: Cell binding assay with 125I-labeled CLIO-EPPT; format: cell-based; conditions: 1 hour incubation
Description: as §1, §5

[8] = Dynamic light scattering of CLIO-EPPT probes; format: physicochemical
Description: To extend these studies using perfluoro labeled polymer, the same FITC-labeled EPPT1 peptide was used. […] The study with the CLIO-EPPT nanoparticles established test procedures which will be used.

[9] = test system: uMUC-1-positive tumors versus uMUC-1-negative tumors; set-up: species or system mice; conditions: mouse, in vivo
Procedure: as §4

[10] = biological target: underglycosylated mucin-1 antigen (uMUC-1) (Homo sapiens, UniProt P15941); conditions: read-out: binding constant Kd; cited from earlier work
underglycosylated mucin-1 antigen (uMUC-1), sequence (P15941 24-1255): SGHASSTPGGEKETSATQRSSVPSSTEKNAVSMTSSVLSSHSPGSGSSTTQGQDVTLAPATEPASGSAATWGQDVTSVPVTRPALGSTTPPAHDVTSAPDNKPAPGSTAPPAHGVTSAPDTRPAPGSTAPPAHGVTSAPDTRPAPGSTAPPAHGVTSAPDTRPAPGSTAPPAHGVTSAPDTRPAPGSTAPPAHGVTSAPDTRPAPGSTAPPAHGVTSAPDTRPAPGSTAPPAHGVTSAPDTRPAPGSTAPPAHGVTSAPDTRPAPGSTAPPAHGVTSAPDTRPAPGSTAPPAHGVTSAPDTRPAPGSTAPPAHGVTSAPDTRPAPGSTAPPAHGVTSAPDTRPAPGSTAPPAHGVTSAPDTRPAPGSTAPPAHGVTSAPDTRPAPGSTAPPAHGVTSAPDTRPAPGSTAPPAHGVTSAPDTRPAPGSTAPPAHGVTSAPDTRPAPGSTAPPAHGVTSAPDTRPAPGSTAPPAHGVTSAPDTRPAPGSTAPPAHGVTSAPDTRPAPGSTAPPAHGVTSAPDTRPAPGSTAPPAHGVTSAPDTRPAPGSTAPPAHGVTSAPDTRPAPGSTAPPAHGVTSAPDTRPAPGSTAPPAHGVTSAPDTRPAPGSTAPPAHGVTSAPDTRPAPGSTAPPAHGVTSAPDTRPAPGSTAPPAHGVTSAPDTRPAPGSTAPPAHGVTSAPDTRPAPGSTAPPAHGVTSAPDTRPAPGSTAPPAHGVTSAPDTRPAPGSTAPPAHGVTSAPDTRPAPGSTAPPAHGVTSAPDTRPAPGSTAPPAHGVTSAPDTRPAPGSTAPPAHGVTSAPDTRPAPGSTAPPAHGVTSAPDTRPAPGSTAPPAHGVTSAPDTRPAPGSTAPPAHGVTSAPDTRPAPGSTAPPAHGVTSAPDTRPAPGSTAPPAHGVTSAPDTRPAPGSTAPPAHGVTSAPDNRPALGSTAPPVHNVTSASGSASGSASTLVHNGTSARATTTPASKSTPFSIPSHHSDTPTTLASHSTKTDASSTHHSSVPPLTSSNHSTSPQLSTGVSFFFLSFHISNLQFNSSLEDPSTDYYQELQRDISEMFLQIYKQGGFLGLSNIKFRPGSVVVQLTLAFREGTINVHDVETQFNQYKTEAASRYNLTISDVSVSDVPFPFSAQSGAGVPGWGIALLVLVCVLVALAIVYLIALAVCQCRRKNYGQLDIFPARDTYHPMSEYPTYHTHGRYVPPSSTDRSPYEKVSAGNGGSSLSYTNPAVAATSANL

N[C@@H](CC(=O)O)C(=O)O [Aspartic Acid]
LD50 [1]: 20000 mg/kg

CCN(CC)c1ccc2c(-c3ccccc3C(=O)O)c3ccc(=[N+](CC)CC)cc-3oc2c1 [Rhodamine, Rhodamine B]
cytotoxicity (cellular viability by MTS) (INS-1 cells): cytotoxic effects were readily observed

COc1cccc2c1C(=O)c1c(O)c3c(c(O)c1C2=O)C[C@@](O)(C(=O)CO)C[C@@H]3O[C@H]1C[C@H](N)[C@H](O)[C@H](C)O1 [doxorubicin]
intracellular localization (confocal microscopy) (Cells): largely confined to the nucleus | rate of cell death (MTS) (INS cells): comparable rate of cell death

CLIO-EPPT: cross-linked iron oxide nanoparticle carrying Cy5.5 dye and FITC-labeled EPPT1 peptides on the dextran coat; radioiodinated for binding and biodistribution (YC(Acm)AREPPTRTFAYWG-{K(FITC)-Lys}; not fully specified; printed as Y-C(ACM)-A-R-E-P-P-T-R-T-F-A-Y-W-G-K(FITC)K; also: conjugated to CLIO iron oxide nanoparticle with Cy5.5 dye, radioiodinated)
staining by fluorescence microscopy ([2]; U87, FITC or Cy5.5 channels): no fluorescence was observed | probe binding by flow cytometry ([2]; control cell line U87): no cell binding; also recorded: no shift | probe binding by flow cytometry [3]: bound the probe; also recorded: a shift in fluorescence in the FLI and FL4 channels | staining by fluorescence microscopy ([3]; FITC and Cy5.5 channels): stained strongly; also recorded: colocalization of the FITC and Cy5.5 signal | NIRF signal [4]: no significant signal | dual channel fluorescence microscopy of excised tumors [4]: no signal | decrease in signal intensity of T2-weighted MR images ([4]; 24 hours after probe injection): 13-18% | decrease in signal intensity of T2-weighted MR images ([5]; LS174T tumors, 24 h after probe injection): 52% | dual channel fluorescence microscopy of excised tumors ([5]; uMUC-1-positive tumors): colocalization of FITC and Cy5.5 signals | NIRF signal ([5]; uMUC-1-positive tumors, immediately after MR-imaging session): high intensity NIRF signal; also recorded: strong NIRF signal | CLIO-EPPT nanoparticles bound per cell ([6]; 125I-labeled, 1 hour incubation): 10^7-10^8 nanoparticles per cell | accumulation versus uMUC-1-negative tumor or normal cells ([6]; cell binding assay, P<0.05): significantly more | nanoparticle uptake versus uMUC-1-positive tumor cell lines [7]: much lower nanoparticle uptake | hydrodynamic diameter [8]: about 36 nm | probe accumulation in uMUC-1-positive tumors relative to uMUC-1-negative tumors [9]: 3.4 times

synthetic peptide YCAREPPTRTFAYWG (SEQ ID NO: 1) derived from CDR3 Vh region of monoclonal antibody ASM2 (not fully specified (C-terminus); listed as Homo sapiens) [EPPT1]
pKd [10]: 4.70

— US8349991B2, “Amphiphilic polymers and methods of use thereof” (Massachusetts Institute of Technology, priority 2005, dated 2013)
